ChEMBL document CHEMBL3600324, “Design, synthesis and evaluation of MCH receptor 1 antagonists--Part II: Optimization of pyridazines toward reduced phospholipidosis and hERG inhibition” (Bioorg Med Chem Lett, 2015)

How the values were obtained:
hERG (KCNH2) [1] = molecular target: T1, hERG (KCNH2) (Homo sapiens, UniProt Q12809); test: Inhibition of human ERG at 1 uM by patch clamp assay
[2] = molecular target: 5-hydroxytryptamine receptor 2A (Homo sapiens, UniProt P28223); test: Binding affinity to 5HT2A receptor (unknown origin)
Sequence of 5-hydroxytryptamine receptor 2A (P28223 whole entry): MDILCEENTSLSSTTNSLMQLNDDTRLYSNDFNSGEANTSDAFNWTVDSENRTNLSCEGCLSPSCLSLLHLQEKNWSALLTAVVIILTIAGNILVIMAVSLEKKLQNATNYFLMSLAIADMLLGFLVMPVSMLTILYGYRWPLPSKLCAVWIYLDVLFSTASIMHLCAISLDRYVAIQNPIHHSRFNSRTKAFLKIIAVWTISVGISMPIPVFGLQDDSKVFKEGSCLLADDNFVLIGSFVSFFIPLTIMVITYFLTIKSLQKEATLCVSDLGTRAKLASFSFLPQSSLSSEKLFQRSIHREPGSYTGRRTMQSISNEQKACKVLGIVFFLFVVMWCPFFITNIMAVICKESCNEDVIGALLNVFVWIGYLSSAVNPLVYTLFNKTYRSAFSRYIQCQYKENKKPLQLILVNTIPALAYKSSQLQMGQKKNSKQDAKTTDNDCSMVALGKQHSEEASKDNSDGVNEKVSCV

[3] = molecular target: T2, Muscarinic acetylcholine receptor M1 (Homo sapiens, UniProt P11229); test: Binding affinity to muscarinic M1 receptor (unknown origin)
T2 sequence (P11229 whole entry): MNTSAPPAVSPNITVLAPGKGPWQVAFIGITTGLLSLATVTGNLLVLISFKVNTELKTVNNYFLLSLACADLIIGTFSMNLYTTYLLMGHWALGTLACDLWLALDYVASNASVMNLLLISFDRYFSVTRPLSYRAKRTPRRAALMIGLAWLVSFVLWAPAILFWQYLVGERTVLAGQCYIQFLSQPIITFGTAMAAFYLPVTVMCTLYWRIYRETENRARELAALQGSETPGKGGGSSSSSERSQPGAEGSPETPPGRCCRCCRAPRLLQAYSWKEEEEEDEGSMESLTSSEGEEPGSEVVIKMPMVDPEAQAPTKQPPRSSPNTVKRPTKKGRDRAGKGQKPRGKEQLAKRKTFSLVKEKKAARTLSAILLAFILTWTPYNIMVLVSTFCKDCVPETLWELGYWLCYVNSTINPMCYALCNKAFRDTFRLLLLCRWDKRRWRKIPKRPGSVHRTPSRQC

[4] = molecular target: Melanin-concentrating hormone receptor 1 (Homo sapiens, UniProt Q99705); test: Displacement of [125I-MCH] from human MCH receptor 1 expressed in CHO cell membranes by scintillation counting method
Sequence of Melanin-concentrating hormone receptor 1 (Q99705 whole entry): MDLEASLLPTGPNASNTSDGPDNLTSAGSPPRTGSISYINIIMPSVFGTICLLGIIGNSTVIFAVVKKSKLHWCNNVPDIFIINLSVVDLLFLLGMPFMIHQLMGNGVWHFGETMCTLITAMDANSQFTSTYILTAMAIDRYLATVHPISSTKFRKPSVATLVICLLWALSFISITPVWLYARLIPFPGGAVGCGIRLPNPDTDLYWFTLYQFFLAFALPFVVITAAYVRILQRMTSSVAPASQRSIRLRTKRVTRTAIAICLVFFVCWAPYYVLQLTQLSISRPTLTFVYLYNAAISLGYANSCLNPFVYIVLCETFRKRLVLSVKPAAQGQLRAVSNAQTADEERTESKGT

U-937 = test: Toxicity in human U937 cells assessed as phospholipidosis first effect concentration by Nile red based fluorescence assay; assay type: cell-based
[5] = Tmax in Wistar rat at 6.7 umol/kg, po; assay type: ADME, organism-based; settings: in vivo
Rattus norvegicus [6] = test: AUC in Wistar rat at 6.7 umol/kg, po; assay type: ADME, organism-based; settings: in vivo
hERG (KCNH2) [7] = molecular target: T1, hERG (KCNH2); test: Inhibition of human ERG at 10 uM by patch clamp assay
Rattus norvegicus [8] = test: Dose normalized Cmax in Wistar rat at 6.7 umol/kg, po; assay type: ADME, organism-based; settings: in vivo
[9] = Mean residence time in Wistar rat at 6.7 umol/kg, po; assay type: ADME, organism-based; settings: in vivo
CHO [10] = test: Selectivity index, ratio of IC50 for 5HT2A receptor (unknown origin) to IC50 for human MCH receptor 1 expressed in CHO cell membranes; assay type: cell-based
CHO [11] = test: Selectivity index, ratio of IC50 for muscarinic M1 receptor (unknown origin) to IC50 for human MCH receptor 1 expressed in CHO cell membranes; assay type: cell-based
Rattus norvegicus [12] = test: Dose normalized Cmax in Wistar rat at 11.9 umol/kg, po; assay type: ADME, organism-based; settings: in vivo
[13] = Dissociation constant, pKa of the compound; assay type: physicochemical
Rattus norvegicus [14] = test: AUC in Wistar rat at 11.9 umol/kg, po; assay type: ADME, organism-based; settings: in vivo
[15] = Mean residence time in Wistar rat at 11.9 umol/kg, po; assay type: ADME, organism-based; settings: in vivo
[16] = Tmax in Wistar rat at 11.9 umol/kg, po; assay type: ADME, organism-based; settings: in vivo
Rattus norvegicus [17] = test: AUC in Wistar rat at 10.9 umol/kg, po; assay type: ADME, organism-based; settings: in vivo
[18] = molecular target: Voltage-gated inwardly rectifying potassium channel KCNH2 (Homo sapiens, UniProt Q12809); test: Inhibition of human ERG by patch clamp assay
Sequence of Voltage-gated inwardly rectifying potassium channel KCNH2 (Q12809 whole entry): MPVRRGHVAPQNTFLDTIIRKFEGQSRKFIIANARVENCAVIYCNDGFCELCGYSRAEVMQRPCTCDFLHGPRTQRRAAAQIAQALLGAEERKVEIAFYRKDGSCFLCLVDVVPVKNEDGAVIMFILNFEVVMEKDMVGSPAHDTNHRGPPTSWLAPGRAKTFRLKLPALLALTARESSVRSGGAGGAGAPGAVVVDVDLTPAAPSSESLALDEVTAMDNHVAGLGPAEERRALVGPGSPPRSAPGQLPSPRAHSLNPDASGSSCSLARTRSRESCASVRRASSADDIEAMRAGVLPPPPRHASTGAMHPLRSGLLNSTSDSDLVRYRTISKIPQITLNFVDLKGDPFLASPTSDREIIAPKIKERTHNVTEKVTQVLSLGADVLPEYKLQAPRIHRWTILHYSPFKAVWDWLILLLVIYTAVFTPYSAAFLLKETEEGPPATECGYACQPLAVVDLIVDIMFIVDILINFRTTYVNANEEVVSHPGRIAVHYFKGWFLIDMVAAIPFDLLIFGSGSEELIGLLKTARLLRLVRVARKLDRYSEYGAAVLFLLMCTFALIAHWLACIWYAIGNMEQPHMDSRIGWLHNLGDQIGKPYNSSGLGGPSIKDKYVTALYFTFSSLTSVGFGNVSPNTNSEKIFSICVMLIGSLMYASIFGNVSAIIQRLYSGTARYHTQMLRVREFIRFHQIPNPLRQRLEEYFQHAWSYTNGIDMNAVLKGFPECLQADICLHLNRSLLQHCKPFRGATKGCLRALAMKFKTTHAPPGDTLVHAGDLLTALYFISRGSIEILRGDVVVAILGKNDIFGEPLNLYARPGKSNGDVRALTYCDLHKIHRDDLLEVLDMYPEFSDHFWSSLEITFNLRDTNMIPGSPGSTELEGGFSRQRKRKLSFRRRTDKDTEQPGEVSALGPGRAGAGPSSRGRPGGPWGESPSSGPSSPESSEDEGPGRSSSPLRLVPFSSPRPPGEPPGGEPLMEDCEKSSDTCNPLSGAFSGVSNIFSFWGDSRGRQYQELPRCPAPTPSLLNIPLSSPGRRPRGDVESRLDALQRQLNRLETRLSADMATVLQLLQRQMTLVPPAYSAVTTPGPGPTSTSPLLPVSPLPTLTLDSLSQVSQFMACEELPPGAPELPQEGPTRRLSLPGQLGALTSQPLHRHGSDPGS

[19] = Tmax in Wistar rat at 10.9 umol/kg, po; assay type: ADME, organism-based; settings: in vivo
Rattus norvegicus [20] = test: Dose normalized Cmax in Wistar rat at 10.9 umol/kg, po; assay type: ADME, organism-based; settings: in vivo
[21] = Mean residence time in Wistar rat at 10.9 umol/kg, po; assay type: ADME, organism-based; settings: in vivo

T1 sequence (Q12809 whole entry): as above

Row | SMILES | IC50 [2] | IC50 [3] | IC50 [4] | inhibition at 1 µM (hERG (KCNH2) [1]) | Activity (U-937) | further results
1 | Clc1ccc(-c2ccc(CCCNc3ccc(CN4CCCCC4)cc3)nn2)cc1 | 138 nM | 310 nM | 4 nM | 8% | 6.25 µM | –
2 | O=C(C#Cc1ccc(-c2ccc(Cl)cc2)cc1)Nc1ccc(CN2CCCCC2)cc1 | – | 225 nM | – | – | – | –
3 | OCC1CCN(Cc2ccc(OCCCc3ccc(-c4ccc(Cl)cc4)nn3)cc2)CC1 | 790 nM | 1650 nM | – | – | 12.5 µM | –
4 | OC1CCN(Cc2ccc(OCCCc3ccc(-c4ccc(F)cc4)nn3)cc2)CC1 | 242 nM | > 10000 nM | 186 nM | – | – | –
5 | O=C(CCc1ccc(-c2ccc(Cl)cc2)cc1)Nc1ccc(CN2CCCCC2)cc1 | 138 nM | 89 nM | 38 nM | – | – | Ratio IC50 (CHO [10]): 4; Ratio IC50 (CHO [11]): 2
6 | COc1ccc(-c2ccc(CCCNc3ccc(CN4CCOCC4)cc3)nn2)cc1 | > 10000 nM | > 10000 nM | 20 nM | 5% | 12.5 µM | pKa [13]: 7.6
7 | O=C(NCc1ccc(-c2ccc(Cl)cc2)cc1)Nc1ccc(CN2CCCCC2)cc1 | 29 nM | 511 nM | – | – | – | –
8 | N#Cc1ccc(-c2ccc(CCCNc3ccc(CN4CCCCC4)cc3)nn2)cc1 | 1460 nM | 1920 nM | – | – | – | –
9 | OCC1CCN(Cc2ccc(OCCCc3ccc(Oc4ccccc4)nn3)cc2)CC1 | > 10000 nM | 2110 nM | – | 8% | 100 µM | –
10 | COc1ccc(-c2ccc(CCCNc3ccc(CN4CCC(O)CC4)cc3)nn2)cc1 | 8820 nM | > 10000 nM | 20 nM | 10% | 50 µM | pKa [13]: 8.6
11 | O=C(/C=C/c1ccc(-c2ccc(Cl)cc2)cc1)Nc1ccc(CN2CCCCC2)cc1 | 1930 nM | 401 nM | 16 nM | – | – | Ratio IC50 (CHO [10]): 121; Ratio IC50 (CHO [11]): 25
12 | CC(=O)NC1CCN(Cc2ccc(NCCCc3ccc(Oc4ccccc4)nn3)cc2)CC1 | > 10000 nM | > 10000 nM | – | – | > 100 µM | AUC/dose (Rattus norvegicus [17]): 123 nM·h; IC50 [18]: > 10000 nM; Tmax [19]: 2.8 h; Cmax/dose (Rattus norvegicus [20]): 24 nM; MRT [21]: 6.4 h
13 | COc1ccc(-c2ccc(CCCNc3ccc(CN(C)C)cc3)nn2)cc1 | 4580 nM | 1030 nM | – | – | – | –
14 | COc1ccc(-c2ccc(CCCNc3ccc(CN4CCCC4)cc3)nn2)cc1 | 4540 nM | 1860 nM | 95 nM | – | – | –
15 | Clc1ccc(-c2ccc(CCCNc3ccc(CN4CCCCC4)cc3)cc2)cc1 | 680 nM | 325 nM | 3 nM | 76% | – | Ratio IC50 (CHO [10]): 230; Ratio IC50 (CHO [11]): 110

Further lines, with some results ahead:

Row | IC50 [2] | IC50 [3] | IC50 [4] | SMILES | inhibition at 1 µM (hERG (KCNH2) [1]) | Activity (U-937) | further results
16 | > 10000 nM | > 10000 nM | 3 nM | OC1CCN(Cc2ccc(NCCCc3ccc(OCc4ccccc4)nn3)cc2)CC1 | 4% | 50 µM | –
17 | 9650 nM | > 10000 nM | 10 nM | CC(=O)NC1CCN(Cc2ccc(OCCCc3ccc(Oc4ccccc4)nn3)cc2)CC1 | – | 100 µM | Tmax [5]: 0.8 h; AUC/dose (Rattus norvegicus [6]): 175 nM·h; inhibition at 10 µM (hERG (KCNH2) [7]): 13%; Cmax/dose (Rattus norvegicus [8]): 531 nM; MRT [9]: 2.9 h
18 | > 10000 nM | > 10000 nM | – | CC(=O)NC1CCN(Cc2ccc(OCCCc3ccc(Cc4ccccc4)nn3)cc2)CC1 | 13% | 100 µM | –
19 | 362 nM | 625 nM | 634 nM | CN(C(=O)/C=C/c1ccc(-c2ccc(Cl)cc2)cc1)c1ccc(CN2CCCCC2)cc1 | – | – | Ratio IC50 (CHO [10]): 1; Ratio IC50 (CHO [11]): 1
20 | 713 nM | 4470 nM | 15 nM | CC(=O)NC1CCN(Cc2ccc(OCCCc3ccc(-c4ccc(F)cc4)nn3)cc2)CC1 | – | 100 µM | –
21 | 34 nM | 3740 nM | – | Fc1ccc(-c2ccc(CCCNc3ccc(CN4CCCCC4)cc3)nn2)cc1 | – | – | –
22 | > 10000 nM | > 10000 nM | 10 nM | COc1ccc(-c2ccc(CCCNc3ccc(CN4CCC(NC(C)=O)CC4)cc3)nn2)cc1 | 7% | 100 µM | Cmax/dose (Rattus norvegicus [12]): 83 nM; pKa [13]: 8.8; AUC/dose (Rattus norvegicus [14]): 476 nM·h; MRT [15]: 4 h; Tmax [16]: 1.5 h
23 | 646 nM | 419 nM | – | CN(CCCc1ccc(-c2ccc(Cl)cc2)cc1)c1ccc(CN2CCCCC2)cc1 | – | – | –
24 | 1410 nM | > 10000 nM | – | OC1CCN(Cc2ccc(OCCCc3ccc(-c4ccc(Cl)cc4)nn3)cc2)CC1 | 38% | 25 µM | –
25 | > 10000 nM | > 10000 nM | 24 nM | OC1CCN(Cc2ccc(NCCCc3ccc(Oc4ccccc4)nn3)cc2)CC1 | – | 50 µM | inhibition at 10 µM (hERG (KCNH2) [7]): 35%; pKa [13]: 9.1
26 | 91 nM | 446 nM | 94 nM | O=C(COc1ccc(-c2ccc(Cl)cc2)cc1)Nc1ccc(CN2CCCCC2)cc1 | – | – | Ratio IC50 (CHO [10]): 1; Ratio IC50 (CHO [11]): 5
27 | > 10000 nM | > 10000 nM | – | O[C@@H]1CCCN(Cc2ccc(OCCCc3ccc(Oc4ccccc4)nn3)cc2)C1 | – | – | –
28 | 1810 nM | 962 nM | 7 nM | COc1ccc(-c2ccc(CCCNc3ccc(CN4CCCCC4)cc3)nn2)cc1 | – | 6.25 µM | pKa [13]: 9
29 | 595 nM | 5470 nM | 15 nM | O[C@@H]1CCCN(Cc2ccc(OCCCc3ccc(-c4ccc(Cl)cc4)nn3)cc2)C1 | 13% | 6.25 µM | –
30 | > 10000 nM | > 10000 nM | – | COc1ccc(-c2ccc(CCCNc3ccc(CN4CCCC(O)C4)cc3)nn2)cc1 (stereo not drawn) | 10% | 25 µM | –
